This is an account of results in patent US20120295845A1, “IMIDAZO-PYRAZOLES AS GPR119 INHIBITORS” (Pfizer Inc, priority 2009, published 2012).

Structures are written as SMILES. Values joined by “and” are separate entries in the source; they are usually repeats but may differ in a detail not shown here. Identical values can stand only once.

This assay deals with T1, human GPR119 (Homo sapiens, UniProt Q8TDV5).
T1 construct: host or cells: HEK293-CRE beta-lactamase cells
T1 sequence (Q8TDV5 1-335): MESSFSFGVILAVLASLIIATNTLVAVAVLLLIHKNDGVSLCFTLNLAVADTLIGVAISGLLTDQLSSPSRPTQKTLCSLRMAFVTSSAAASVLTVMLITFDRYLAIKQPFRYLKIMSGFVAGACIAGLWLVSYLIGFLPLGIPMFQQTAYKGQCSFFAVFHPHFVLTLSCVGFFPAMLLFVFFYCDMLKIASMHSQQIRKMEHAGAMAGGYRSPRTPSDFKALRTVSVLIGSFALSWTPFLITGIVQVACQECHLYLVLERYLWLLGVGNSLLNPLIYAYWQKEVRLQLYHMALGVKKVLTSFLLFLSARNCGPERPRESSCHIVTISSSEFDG
Kind of assay: GPR119 radioligand binding assay ([3H]-Compound A or [3H]-Compound B, membranes of HEK 293FT cells expressing hGPR119). The following applies: Ki calculated from IC50 by the Cheng-Prusoff equation; one value per run. The protocol: HEK 293FT cells (Invitrogen, Carlsbad, Calif.) were grown in a shake flask in 293Freestyle medium (Invitrogen) supplemented with 50 microg/mL neomycin and 10 mM HEPES (37C, 8% carbon dioxide, shaking). The cells were centrifuged gently (approximately 500×g, 10 minutes) and the pellet resuspended in a mixture of Dulbecco's PBS (minus Mg++/Ca++) supplemented with 18% fetal bovine serum (Sigma Aldrich) and P1 virus such that the multiplicity of infection (MOI) was 10 and the final cell density was 1.3×10^6/mL (total volume 2.5 liters). The cells were transferred to a 5 liter Wave Bioreactor Wavebag (Wave Technologies, Mass.) and incubated for 4 hours at 27 degrees Celsius (17 rocks/min, 7 degrees platform angle); at the end of the incubation period, an equal volume (2.5 liters) of 293Freestyle medium supplemented with 30 mM sodium butyrate (Sigma Aldrich) was added (final concentration=15 mM), and the cells were grown for 20 hours (37 degrees Celsius, 8% CO2 [0.2 liters/min}, 25 rocks/minute, 7 degrees platform angle). Cells were harvested via centrifugation (3,000×g, 10 minutes), washed once on DPBS (minus Ca++/Mg++), resuspended in 0.25M sucrose, 25 mM HEPES, 0.5 mM EDTA, pH 7.4 and frozen at −80 degrees Celsius.
The frozen cells were thawed on ice and centrifuged at 700×g (1400 rpm) for 10 minutes at 4 degrees Celsius. The cell pellet was resuspended in 20 mL phosphate-buffered saline, and centrifuged at 1400 rpm for 10 minutes. The cell pellet was then resuspended in homogenization buffer (10 mM HEPES (Gibco #15630), pH 7.5, 1 mM EDTA (BioSolutions, #BIO260-15), 1 mM EGTA (Sigma, #E-4378), 0.01 mg/mL benzamidine (Sigma #B 6506), 0.01 mg/mL bacitracin (Sigma #B 0125), 0.005 mg/mL leupeptin (Sigma #L 8511), 0.005 mg/mL aprotinin (Sigma #A 1153)) and incubated on ice for 10 minutes. Cells were then lysed with 15 gentle strokes of a tight-fitting glass Dounce homogenizer. The homogenate was centrifuged at 1000×g (2200 rpm) for 10 minutes at 4 degrees Celsius. The supernatant was transferred into fresh centrifuge tubes on ice. The cell pellet was resuspended in homogenization buffer, and centrifuged again at 1000×g (2200 rpm) for 10 minutes at 4 degrees Celsius after which the supernatant was removed and the pellet resuspended in homogenization buffer. This process was repeated a third time, after which the supernatants were combined, Benzonase (Novagen # 71206) and MgC12 (Fluka #63020) were added to final concentrations of 1 U/mL and 6 mM, respectively, and incubated on ice for one hour. The solution was then centrifuged at 25,000×g (15000 rpm) for 20 minutes at 4 degrees Celsius, the supernatant was discarded, and the pellet was resuspended in fresh homogenization buffer (minus Benzonase and MgCl2). After repeating the 25,000×g centrifugation step, the final membrane pellet was resuspended in homogenization buffer and frozen at −80 degrees Celsius. The protein concentration was determined using the Pierce BCA protein assay kit (Pierce reagents A #23223 and B #23224).
Test compounds were serially diluted in 100% DMSO (J. T. Baker #922401). 2 microL of each dilution was added to appropriate wells of a 96-well plate (each concentration in triplicate). Unlabeled Compound A (or Compound B), at a final concentration of 10 microM, was used to determine non-specific binding. [^3H]-Compound A (or [^3H]-Compound B) was diluted in binding buffer (50 mM Tris-HCl, pH 7.5, (Sigma #T7443), 10 mM MgCl2 (Fluka 63020), 1 mM EDTA (BioSolutions #BIO260-15), 0.15% bovine serum albumin (Sigma #A7511), 0.01 mg/mL benzamidine (Sigma #B 6506), 0.01 mg/mL bacitracin (Sigma #B 0125), 0.005 mg/mL leupeptin (Sigma #L 8511), 0.005 mg/mL aprotinin (Sigma #A 1153)) to a concentration of 60 nM, and 100 microL added to all wells of 96-well plate (Nalge Nunc # 267245). Membranes expressing GPR119 were thawed and diluted to a final concentration of 20 μg/100 microL per well in Binding Buffer, and 100 microL of diluted membranes were added to each well of 96-well plate. […]

Take `Cc1c(O[C@H]2CCN(C(=O)OC3(C)CC3)C[C@H]2F)ncnc1N1CCn2nccc21` (racemic) [Example 3, 1-Methylcyclopropyl (3R,4S)-4-{[6-(2,3-dihydro-1H-imidazo[1,2-b]pyrazol-1-yl)-5-methylpyrimidin-4-yl]oxy}-3-fluoropiperidine-1-carboxylate (racemic)]: the Ki is 0.074 µM and 0.083 µM and 0.085 µM and 0.097 µM and 0.071 µM and 0.034 µM and 0.05 µM.
The result for `Cc1c(O[C@H]2CCN(C(=O)OC(C)C)C[C@H]2F)ncnc1N1CCn2nccc21` (racemic) [Example 4, Isopropyl (3R,4S)-4-{[6-(2,3-dihydro-1H-imidazo[1,2-b]pyrazol-1-yl)-5-methylpyrimidin-4-yl]oxy}-3-fluoropiperidine-1-carboxylate (racemic)] reads 0.14 µM; that for `Cc1c(O[C@@H]2CCN(C(=O)OC3(C)CC3)C[C@@H]2F)ncnc1N1CCn2nccc21` (single isomer, unassigned) [Example 5], 0.057 µM and 0.038 µM and 0.05 µM and 0.064 µM and 0.044 µM and 0.013 µM and 0.042 µM and 0.104 µM and 0.046 µM.
On to `Cc1c(O[C@H]2CCN(C(=O)OC3(C)CC3)C[C@H]2F)ncnc1N1CCn2nccc21` (single isomer, unassigned) [Example 6], for which the Ki was 0.069 µM and 0.295 µM and 0.186 µM and 0.133 µM and 0.101 µM and 0.067 µM and 0.08 µM.
The result for `Cc1c(OC2CCN(C(=O)OC(C)C)CC2)ncnc1N1CCn2nccc21` [Example 1, Isopropyl 4-{[6-(2,3-dihydro-1H-imidazo[1,2-b]pyrazol-1-yl)-5-methylpyrimidin-4-yl]oxy}piperidine-1-carboxylate] reads 0.514 µM and 0.442 µM and 0.446 µM and 0.524 µM.
Take `Cc1c(OC2CCN(C(=O)OC3(C)CC3)CC2)ncnc1N1CCn2nccc21` [Example 2, 1-Methylcyclopropyl 4-{[6-(2,3-dihydro-1H-imidazo[1,2-b]pyrazol-1-yl)-5-methylpyrimidin-4-yl]oxy}piperidine-1-carboxylate]: the Ki was 0.305 µM.
